Where no end group is shown, it is not given here.
Key:
[1] = molecular target: dipeptidyl peptidase IV (DPP-IV) (Homo sapiens, UniProt P27487); conditions: variants with the 8-position alanine replaced, compared with GLP-1 or its fragment; cited from earlier work
STZ rats = assay: Efficacy study by subcutaneous administration in the experimental animal model of type 2 diabetes (STZ rats), blood glucose; format: in vivo, Male Wistar rats; conditions: for Blood glucose concentration at 0 hour (mM, mean ± sem): 0 hour (start of experiment, time of injection)
Procedure: 1) The Experimental Animal Model of Type 2 Diabetes Male Wistar rats of approximately 200 grams were fasted overnight with free access to water. The rats were administered a single dose of streptozotocin (STZ) by intraperitoneal injection (ip) in an amount of 45 mg/Kg. Then, the rats were normally fed and tested for fasting blood glucose. […] 2) Experimental Method Forty-eight rats were randomly divided into 6 groups, with each of 8 rats. […] At 0 hour, the STZ rats were injected subcutaneously with different doses of drugs for test. At 3, 6, and 9 hours, blood samples were taken from the vein of the rats' tail. The blood samples were tested to provide the blood glucose concentrations of the rats.

[2] = test system: patients with type 2 diabetes; conditions: after 6 weeks of GLP-1 treatment; cited from earlier work

Chain of dipeptidyl peptidase IV (DPP-IV) (P27487 whole entry, species assumed, the tested form may be a part): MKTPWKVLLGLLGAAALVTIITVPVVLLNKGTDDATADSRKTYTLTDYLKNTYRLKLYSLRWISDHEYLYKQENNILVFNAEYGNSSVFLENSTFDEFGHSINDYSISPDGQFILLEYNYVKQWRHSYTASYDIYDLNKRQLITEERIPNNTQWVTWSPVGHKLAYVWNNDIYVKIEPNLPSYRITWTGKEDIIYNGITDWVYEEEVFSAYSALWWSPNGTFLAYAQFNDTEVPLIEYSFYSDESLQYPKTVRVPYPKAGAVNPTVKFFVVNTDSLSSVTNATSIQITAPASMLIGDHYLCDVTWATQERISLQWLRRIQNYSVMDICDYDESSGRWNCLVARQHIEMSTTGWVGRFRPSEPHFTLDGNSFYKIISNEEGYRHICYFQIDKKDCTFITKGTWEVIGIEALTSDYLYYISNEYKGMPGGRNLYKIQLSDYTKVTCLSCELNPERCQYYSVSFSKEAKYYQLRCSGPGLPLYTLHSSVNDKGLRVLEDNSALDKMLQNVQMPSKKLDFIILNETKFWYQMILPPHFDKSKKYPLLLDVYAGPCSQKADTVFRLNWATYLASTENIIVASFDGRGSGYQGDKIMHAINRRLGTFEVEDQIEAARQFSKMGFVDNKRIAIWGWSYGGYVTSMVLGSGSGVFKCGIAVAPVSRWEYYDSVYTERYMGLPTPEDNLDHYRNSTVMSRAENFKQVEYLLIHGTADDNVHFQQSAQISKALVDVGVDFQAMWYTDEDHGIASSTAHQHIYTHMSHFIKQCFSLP

## Gly^8-GLP-1 (HDEFERHGEGTFTSDVSSYLEGQAAKEFIAWLVKGRG; Glucagon-like peptide 1; UniProt P01275 92-128, looked up, variant A8G) [variant obtained by replacing the 8-position alanine of GLP-1 or a fragment thereof with glycine]
[1]
  resistance to DPP-IV mediated degradation: increased resistance

## His-Gly-Glu-Gly-Thr-Phe-Pro-Ser-Asp-Val-Ser-Ser-Tyr-Leu-Glu-Gly-Gln-Ala-Ala-Lys-Glu-Phe-Ile-Ala-Trp-Leu-Val-Lys-Gly-Arg-NH2 (HGEGTFPSDVSSYLEGQAAKEFIAWLVKGR-NH2) [Gly^8-Pro^13-GLP-1(7-36)NH2, GLP-1 polypeptide with T13P mutation]
STZ rats; 1 μg/kg subcutaneous
  Blood glucose concentration at 0 hour (mM, mean ± sem): 27.4 ± 0.8 mM
  Blood glucose concentration at 3 hour (mM, mean ± sem): 23.4 ± 1.1 mM
  Blood glucose concentration at 6 hour (mM, mean ± sem): 19.5 ± 0.5 mM
  Blood glucose concentration at 9 hour (mM, mean ± sem): 16.3 ± 0.7 mM
STZ rats; 10 μg/kg subcutaneous
  Blood glucose concentration at 0 hour (mM, mean ± sem): 24.0 ± 1.1 mM
  Blood glucose concentration at 3 hour (mM, mean ± sem): 18.5 ± 0.9 mM
  Blood glucose concentration at 6 hour (mM, mean ± sem): 14.5 ± 0.8 mM
  Blood glucose concentration at 9 hour (mM, mean ± sem): 10.5 ± 0.6 mM
STZ rats; subcutaneous, comparison from the data of Table 1 (vs Liraglutide P<0.01)
  blood-glucose lowering effect compared with reference drugs: significantly better than that of Liraglutide

## Ser^8-GLP-1 (HDEFERHSEGTFTSDVSSYLEGQAAKEFIAWLVKGRG; Glucagon-like peptide 1; UniProt P01275 92-128, looked up, variant A8S) [variant obtained by replacing the 8-position alanine of GLP-1 or a fragment thereof with serine]
[1]
  resistance to DPP-IV mediated degradation: increased resistance

## Thr^8-GLP-1 (HDEFERHTEGTFTSDVSSYLEGQAAKEFIAWLVKGRG; Glucagon-like peptide 1; UniProt P01275 92-128, looked up, variant A8T) [variant obtained by replacing the 8-position alanine of GLP-1 or a fragment thereof with threonine]
[1]
  resistance to DPP-IV mediated degradation: increased resistance

## ^1HDEFERHAEGTFTSDVSSYLEGQAAKEFIAWLVKGRG [GLP-1, Glucagon-like peptide-1, a polypeptide containing 37 amino acids]
[2]
  average weight loss: 1.9 kg
